{"source": "the supplement of paper PMC5844555", "experiment_in_all_cases": "3' UTR reporter interaction score (median-centred robust z-score of log2 firefly/Renilla activity); higher = less repression of the 3' UTR reporter", "details_in_all_cases": "HEK293T; 48 h", "key": {"PHF6": {"tested_on": "PHF6", "summary_of_the_method": "(§1)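 A firefly luc2P reporter carrying the gene's 3' UTR (100 ng), Renilla pRL-TK control (20 ng) and miRNA mimic (2.5 pmol) were co-transfected with DharmaFECT Duo into HEK293T cells plated at 10,000/well in 96-well plates. Luciferase activities were read 48 h post-transfection. The interaction score is the log firefly/Renilla ratio as a per-plate robust z-score from median and median absolute deviation, median-centred per miRNA, and more negative indicates interaction. Values are averages of at least two independent screens.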"}, "PHOX2B": {"tested_on": "PHOX2B", "summary_of_the_method": "as §1"}, "FBXW7": {"tested_on": "FBXW7", "summary_of_the_method": "as §1"}, "RB1": {"tested_on": "RB1", "summary_of_the_method": "as §1"}, "MYC": {"tested_on": "MYC", "summary_of_the_method": "as §1"}, "MYT1L": {"tested_on": "MYT1L", "summary_of_the_method": "as §1"}, "MYB": {"tested_on": "MYB", "summary_of_the_method": "as §1"}, "NOTCH1": {"tested_on": "NOTCH1", "summary_of_the_method": "as §1"}, "TP53": {"tested_on": "TP53", "summary_of_the_method": "as §1"}, "EZH2": {"tested_on": "EZH2", "summary_of_the_method": "as §1"}, "HRAS": {"tested_on": "HRAS", "summary_of_the_method": "as §1"}, "MYCN": {"tested_on": "MYCN", "summary_of_the_method": "as §1"}, "ZEB2": {"tested_on": "ZEB2", "summary_of_the_method": "as §1"}, "BRCA2": {"tested_on": "BRCA2", "summary_of_the_method": "as §1"}}, "data": [{"sequence": "UUCUCCAAAAGAAAGCACUUUCUG", "values": [{"measurement": "3' UTR reporter interaction score", "setting": "PHF6", "value": 1.85}, {"measurement": "3' UTR reporter interaction score", "setting": "PHOX2B", "value": 1.93}, {"measurement": "3' UTR reporter interaction score", "setting": "FBXW7", "value": -0.49}, {"measurement": "3' UTR reporter interaction score", "setting": "RB1", "value": 1.42}, {"measurement": "3' UTR reporter interaction score", "setting": "MYC", "value": -0.642}, {"measurement": "3' UTR reporter interaction score", "setting": "MYT1L", "value": 2.07}, {"measurement": "3' UTR reporter interaction score", "setting": "MYB", "value": -0.561}, {"measurement": "3' UTR reporter interaction score", "setting": "NOTCH1", "value": -0.152}, {"measurement": "3' UTR reporter interaction score", "setting": "TP53", "value": -0.447}, {"measurement": "3' UTR reporter interaction score", "setting": "EZH2", "value": 0.815}, {"measurement": "3' UTR reporter interaction score", "setting": "HRAS", "value": 0.348}, {"measurement": "3' UTR reporter interaction score", "setting": "MYCN", "value": -0.288}, {"measurement": "3' UTR reporter interaction score", "setting": "ZEB2", "value": 1.36}, {"measurement": "3' UTR reporter interaction score", "setting": "BRCA2", "value": 0.931}]}, {"sequence": "UUGAGAAUGAUGAAUCAUUAGG", "values": [{"measurement": "3' UTR reporter interaction score", "setting": "PHF6", "value": -1.78}, {"measurement": "3' UTR reporter interaction score", "setting": "PHOX2B", "value": -0.12}, {"measurement": "3' UTR reporter interaction score", "setting": "FBXW7", "value": -0.3}, {"measurement": "3' UTR reporter interaction score", "setting": "RB1", "value": -0.111}, {"measurement": "3' UTR reporter interaction score", "setting": "MYC", "value": 0.0578}, {"measurement": "3' UTR reporter interaction score", "setting": "MYT1L", "value": -0.0444}, {"measurement": "3' UTR reporter interaction score", "setting": "MYB", "value": 0.0167}, {"measurement": "3' UTR reporter interaction score", "setting": "NOTCH1", "value": 0.0298}, {"measurement": "3' UTR reporter interaction score", "setting": "TP53", "value": 0.335}, {"measurement": "3' UTR reporter interaction score", "setting": "EZH2", "value": -0.195}, {"measurement": "3' UTR reporter interaction score", "setting": "HRAS", "value": 1.09}, {"measurement": "3' UTR reporter interaction score", "setting": "MYCN", "value": -0.554}, {"measurement": "3' UTR reporter interaction score", "setting": "ZEB2", "value": -0.412}, {"measurement": "3' UTR reporter interaction score", "setting": "BRCA2", "value": 0.13}]}, {"sequence": "UUGCAUAGUCACAAAAGUGA", "values": [{"measurement": "3' UTR reporter interaction score", "setting": "PHF6", "value": -0.0278}, {"measurement": "3' UTR reporter interaction score", "setting": "PHOX2B", "value": 0.0715}, {"measurement": "3' UTR reporter interaction score", "setting": "FBXW7", "value": 1.37}, {"measurement": "3' UTR reporter interaction score", "setting": "RB1", "value": -0.308}, {"measurement": "3' UTR reporter interaction score", "setting": "MYC", "value": 0.279}, {"measurement": "3' UTR reporter interaction score", "setting": "MYT1L", "value": -0.0799}, {"measurement": "3' UTR reporter interaction score", "setting": "MYB", "value": -1.85}, {"measurement": "3' UTR reporter interaction score", "setting": "NOTCH1", "value": 0.184}, {"measurement": "3' UTR reporter interaction score", "setting": "TP53", "value": 0.904}, {"measurement": "3' UTR reporter interaction score", "setting": "EZH2", "value": 0.179}, {"measurement": "3' UTR reporter interaction score", "setting": "HRAS", "value": -0.0974}, {"measurement": "3' UTR reporter interaction score", "setting": "MYCN", "value": 0.143}, {"measurement": "3' UTR reporter interaction score", "setting": "ZEB2", "value": -2.2}, {"measurement": "3' UTR reporter interaction score", "setting": "BRCA2", "value": -0.381}]}, {"sequence": "UUGCAUAUGUAGGAUGUCCCAU", "values": [{"measurement": "3' UTR reporter interaction score", "setting": "PHF6", "value": -1.76}, {"measurement": "3' UTR reporter interaction score", "setting": "PHOX2B", "value": -1.16}, {"measurement": "3' UTR reporter interaction score", "setting": "FBXW7", "value": 1.23}, {"measurement": "3' UTR reporter interaction score", "setting": "RB1", "value": -0.812}, {"measurement": "3' UTR reporter interaction score", "setting": "MYC", "value": 0.476}, {"measurement": "3' UTR reporter interaction score", "setting": "MYT1L", "value": -1.22}, {"measurement": "3' UTR reporter interaction score", "setting": "MYB", "value": -1.75}, {"measurement": "3' UTR reporter interaction score", "setting": "NOTCH1", "value": 0.153}, {"measurement": "3' UTR reporter interaction score", "setting": "TP53", "value": 0.961}, {"measurement": "3' UTR reporter interaction score", "setting": "EZH2", "value": 0.731}, {"measurement": "3' UTR reporter interaction score", "setting": "HRAS", "value": 0.995}, {"measurement": "3' UTR reporter interaction score", "setting": "MYCN", "value": -0.178}, {"measurement": "3' UTR reporter interaction score", "setting": "ZEB2", "value": -4.28}, {"measurement": "3' UTR reporter interaction score", "setting": "BRCA2", "value": 0.216}]}, {"sequence": "UUGGCCACAAUGGGUUAGAAC", "values": [{"measurement": "3' UTR reporter interaction score", "setting": "PHF6", "value": 1.18}, {"measurement": "3' UTR reporter interaction score", "setting": "PHOX2B", "value": 0.306}, {"measurement": "3' UTR reporter interaction score", "setting": "FBXW7", "value": -5.44}, {"measurement": "3' UTR reporter interaction score", "setting": "RB1", "value": 0.342}, {"measurement": "3' UTR reporter interaction score", "setting": "MYC", "value": 0.316}, {"measurement": "3' UTR reporter interaction score", "setting": "MYT1L", "value": 1.36}, {"measurement": "3' UTR reporter interaction score", "setting": "MYB", "value": 0.316}, {"measurement": "3' UTR reporter interaction score", "setting": "NOTCH1", "value": -0.0688}, {"measurement": "3' UTR reporter interaction score", "setting": "TP53", "value": -0.693}, {"measurement": "3' UTR reporter interaction score", "setting": "EZH2", "value": -1.06}, {"measurement": "3' UTR reporter interaction score", "setting": "HRAS", "value": -0.0679}, {"measurement": "3' UTR reporter interaction score", "setting": "MYCN", "value": 0.113}, {"measurement": "3' UTR reporter interaction score", "setting": "ZEB2", "value": 0.409}, {"measurement": "3' UTR reporter interaction score", "setting": "BRCA2", "value": 0.035}]}]}
